From US8557816B2, “Aurora kinase modulators and method of use” (Amgen Inc., priority 2007, dated 2013)

Key:
[1] = molecular target: T1, AuroraA-TPX2 (Homo sapiens, UniProt O14965); assay: AuroraA-TPX2 Homogeneous Time Resolved Fluorescent (HTRF) kinase assay; format: biochemical; details: average; read-out: AurA_IC50_IP (uM Avg)
T1 construct: 20 μL of AuroraA-TPX2 KD GST for a final volume of about 41 μL; GST
T1 sequence (O14965 133-383 limits assumed): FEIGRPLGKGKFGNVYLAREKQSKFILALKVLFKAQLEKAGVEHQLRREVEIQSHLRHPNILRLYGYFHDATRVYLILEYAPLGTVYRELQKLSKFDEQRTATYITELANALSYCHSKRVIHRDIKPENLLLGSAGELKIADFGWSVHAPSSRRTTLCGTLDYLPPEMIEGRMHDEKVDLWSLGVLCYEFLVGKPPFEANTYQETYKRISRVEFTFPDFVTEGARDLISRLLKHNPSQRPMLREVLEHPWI
T1 sequence (Q9ULW0 1-43 partner limits assumed): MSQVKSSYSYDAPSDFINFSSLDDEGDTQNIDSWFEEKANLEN
In short: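 HTRF read-out (Eu 615 nm to APC 655 nm) of phosphorylated biotin-PLK, detected with 0.02 nM europium anti-phosphoPLK antibody and 0.0005 mg/mL SA-APC after overnight equilibration.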

[2] = molecular target: T2, AuroraB (Homo sapiens, UniProt Q96GD4); assay: AuroraB Homogeneous Time Resolved Fluorescent (HTRF) kinase assay; format: biochemical; details: average; read-out: AurB_IC50_IP (uM Avg)
T2 construct: 20 μL of AuroraB FL H is for a final volume of 41 μL; His
In short: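 Full-length His-tagged kinase phosphorylates biotinylated Histone H3 (0.1 μM final) with ATP in pH 7.5 HEPES containing MgCl, MnCl, DTT and BSA for about 90 min. EDTA-containing detection mix with SA-APC and Eu-anti-phosphoHistone H3 then equilibrated about 60 min; HTRF read with 320 nm excitation, emissions 615/655 nm.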

T2 sequence (Q96GD4 whole entry): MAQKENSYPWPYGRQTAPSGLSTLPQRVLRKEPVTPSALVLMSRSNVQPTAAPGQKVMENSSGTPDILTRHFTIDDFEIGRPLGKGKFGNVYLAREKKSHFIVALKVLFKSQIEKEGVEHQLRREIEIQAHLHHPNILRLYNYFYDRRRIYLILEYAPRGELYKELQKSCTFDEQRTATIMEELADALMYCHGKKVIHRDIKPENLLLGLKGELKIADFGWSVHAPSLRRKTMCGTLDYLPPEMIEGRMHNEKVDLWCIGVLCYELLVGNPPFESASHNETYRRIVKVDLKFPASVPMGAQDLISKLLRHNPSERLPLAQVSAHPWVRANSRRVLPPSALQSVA

SMILES | IC50 [1] | IC50 [2]
Cc1ccc(-c2ccc3c(Oc4ccc(Nc5nnc(-c6ccccc6)c6ccccc56)cc4)ccnc3c2)o1 [compound 344, N-(4-(7-(5-methylfuran-2-yl)quinolin-4-yloxy)phenyl)-4-phenylphthalazin-1-amine] | 0.057 µM | 0.022 µM
COc1ccc2c(Oc3ccc(Nc4nnc(-c5ccc(Cl)cc5)c5ccccc45)cc3)ccnc2c1 [compound 345, 4-(4-chlorophenyl)-N-(4-(7-methoxyquinolin-4-yloxy)phenyl)phthalazin-1-amine] | 0.04 µM | 0.024 µM
COc1cnc2c(Sc3ccc(Nc4nnc(N5CCCCC5)c5ccccc45)cc3)ccnc2c1 [compound 346, N-(4-(7-methoxy-1,5-naphthyridin-4-ylthio)phenyl)-4-(piperidin-1-yl)phthalazin-1-amine] | 0.044 µM | 0.024 µM
COc1ccc2nccc(Oc3ccc(Nc4nnc(-c5ccccc5)c5ccccc45)cc3)c2n1 [compound 347, N-(4-(6-methoxy-1,5-naphthyridin-4-yloxy)phenyl)-4-phenylphthalazin-1-amine] | 0.067 µM | 0.01 µM
COc1cnc2c(Oc3ccc(Nc4nnc(-c5cc(C)no5)c5ccccc45)cc3)ccnc2c1 [compound 350, N-(4-(7-methoxy-1,5-naphthyridin-4-yloxy)phenyl)-4-(3-methylisoxazol-5-yl)phthalazin-1-amine] | 0.04 µM | 0.007 µM
N#Cc1cc2nccc(Sc3ccc(Nc4nnc(-c5ccc(Cl)cc5)c5ccccc45)cc3)c2s1 [compound 351, 7-(4-(4-(4-chlorophenyl)phthalazin-1-ylamino)phenylthio)thieno[3,2-b]pyridine-2-carbonitrile] | 0.008 µM | 0.003 µM
c1ccc(-c2nnc(Nc3ccc(Sc4ccnc5[nH]ncc45)cc3)c3ccccc23)cc1 [compound 352, N-(4-(1H-pyrazolo[3,4-b]pyridin-4-ylthio)phenyl)-4-phenylphthalazin-1-amine] | 0.074 µM | 0.001 µM
COc1cc2nccc(Sc3ccc(Nc4nnc(-c5ccc(Cl)cc5)c5ccccc45)cc3)c2cn1 [compound 354, 4-(4-chlorophenyl)-N-(4-(7-methoxy-1,6-naphthyridin-4-ylthio)phenyl)phthalazin-1-amine] | 0.025 µM | 0.009 µM
CCc1cc(-c2ccc(C)cc2)nnc1Nc1ccc(Sc2ccnc3cccnc23)cc1 [compound 358, N-(4-(1,5-naphthyridin-4-ylthio)phenyl)-4-ethyl-6-p-tolylpyridazin-3-amine] | 0.049 µM | 0.006 µM
Clc1ccc(-c2nnc(Nc3ccc(Sc4ccnc5[nH]ncc45)cc3)c3ccccc23)cc1 [compound 359, N-(4-(1H-pyrazolo[3,4-b]pyridin-4-ylthio)phenyl)-4-(4-chlorophenyl)phthalazin-1-amine] | 0.012 µM | 0.017 µM
CNC(=O)c1cc(Oc2ccc(Nc3nnc(-c4ccc(Cl)cc4)c4ccccc34)cc2)ccn1 [compound 361, 4-(4-(4-(4-chlorophenyl)phthalazin-1-ylamino)phenoxy)-N-methylpicolinamide] | 0.245 µM | 0.173 µM
Cc1csc(-c2nnc(Nc3ccc(Sc4ccnc5ccsc45)cc3)c3ccccc23)c1 [compound 366, 4-(4-methylthiophen-2-yl)-N-(4-(thieno[3,2-b]pyridin-7-ylthio)phenyl)phthalazin-1-amine] | 0.037 µM | 0.051 µM
COc1cnc2c(Oc3ccc(Nc4nnc(-c5ccccc5)c5c4CCC5)cc3)ccnc2c1 [compound 367, N-(4-(7-methoxy-1,5-naphthyridin-4-yloxy)phenyl)-4-phenyl-6,7-dihydro-5H-cyclopenta[d]pyridazin-1-amine] | 0.028 µM | 0.057 µM
COc1ccc2c(Oc3ccc(Nc4nnc(-c5ccccc5)c5c4CCC5)cc3)ccnc2c1 [compound 368, N-(4-(7-methoxyquinolin-4-yloxy)phenyl)-4-phenyl-6,7-dihydro-5H-cyclopenta[d]pyridazin-1-amine] | 0.04 µM | 0.063 µM
c1ccc(-c2nnc(Nc3ccc(Oc4ccnc5ccnn45)cc3)c3ccccc23)cc1 [compound 370, 4-phenyl-N-(4-(pyrazolo[1,5-a]pyrimidin-7-yloxy)phenyl)phthalazin-1-amine] | 0.505 µM | 0.594 µM
COc1cnc2c(Oc3ccc(Nc4nnc(-c5ccc(Cl)cc5)c5c4CCC5)cc3)ccnc2c1 [compound 411] | > 25 µM | > 25 µM
COc1ccc2c(Oc3ccc(Nc4nnc(-c5ccc(Cl)cc5)c5c4CCC5)cc3)ccnc2c1 [compound 412] | > 25 µM | > 25 µM
COc1cnc2c(Sc3ccc(Nc4nnc(-c5ccccc5)c5ccccc45)cn3)ccnc2c1 [compound 413] | 0.09 µM | 0.031 µM
c1ccc(-c2nnc(Nc3ccc(Oc4ccnc5cc(-c6cn[nH]c6)ccc45)cc3)c3ccccc23)cc1 [compound 417] | 0.009 µM | 0.002 µM
COc1cc2ncnc(Sc3ccc(Nc4nnc(-c5ccc(Cl)cc5)c5ccccc45)cc3)c2cc1OC [compound 418] | 0.028 µM | 0.012 µM
COc1cc2c(Oc3ccc(Nc4nnc(-c5ccccc5)c5ccccc45)cc3)ccnc2cc1O [compound 422] | 0.029 µM | 0.013 µM
Clc1ccc(-c2nnc(Nc3ccc(Oc4ccnc5ccncc45)cc3)c3ccccc23)cc1 [compound 423] | 0.047 µM | 0.003 µM
c1ccc2c(-c3ccc4c(c3)OCO4)nnc(Nc3ccc(Oc4ccnc5ccncc45)cc3)c2c1 [compound 424] | 0.055 µM | 0.004 µM
Clc1ccc(-c2nnc(Nc3ccc(Sc4ccnc5ccncc45)cc3)c3ccccc23)cc1 [compound 426] | 0.1 µM | 0.008 µM

Continued, values first:

IC50 [1] | IC50 [2] | SMILES
0.057 µM | 0.023 µM | COc1ccc2nccc(Sc3ccc(Nc4nnc(-c5ccc(Cl)cc5)c5ccccc45)cc3)c2n1 [compound 348, 4-(4-chlorophenyl)-N-(4-(6-methoxy-1,5-naphthyridin-4-ylthio)phenyl)phthalazin-1-amine]
0.058 µM | 0.008 µM | COc1cc2nccc(Sc3ccc(Nc4nnc(-c5ccccc5)c5ccccc45)cc3)c2cn1 [compound 353, N-(4-(7-methoxy-1,6-naphthyridin-4-ylthio)phenyl)-4-phenylphthalazin-1-amine]
0.241 µM | 0.006 µM | c1ccc(-c2nnc(Nc3ccc(Sc4ccnc5ccsc45)cc3)c3ccccc23)cc1 [compound 355, 4-phenyl-N-(4-(thieno[3,2-b]pyridin-7-ylthio)phenyl)phthalazin-1-amine]
0.036 µM | 0.012 µM | COc1cnc2c(Sc3ccc(Nc4nnc(-c5ccc(F)cc5)c5ccccc45)cc3)ccnc2c1 [compound 356, 4-(4-fluorophenyl)-N-(4-(7-methoxy-1,5-naphthyridin-4-ylthio)phenyl)phthalazin-1-amine]
0.029 µM | 0.012 µM | COc1ccc(-c2nnc(Nc3ccc(Sc4ccnc5cc(OC)cnc45)cc3)c3ccccc23)cc1 [compound 357, N-(4-(7-methoxy-1,5-naphthyridin-4-ylthio)phenyl)-4-(4-methoxyphenyl)phthalazin-1-amine]
0.066 µM | 0.092 µM | c1ccc(-c2nnc(Nc3ccc(Sc4ccnc5[nH]cnc45)cc3)c3ccccc23)cc1 [compound 362, N-(4-(3H-imidazo[4,5-b]pyridin-7-ylthio)phenyl)-4-phenylphthalazin-1-amine]
0.019 µM | 0.036 µM | Clc1ccc(-c2nnc(Nc3ccc(Sc4ccnc5[nH]cnc45)cc3)c3ccccc23)cc1 [compound 363, N-(4-(3H-imidazo[4,5-b]pyridin-7-ylthio)phenyl)-4-(4-chlorophenyl)phthalazin-1-amine]
0.036 µM | 0.073 µM | COc1ccc2c(Sc3ccc(Nc4nnc(-c5ccc(Cl)cn5)c5ccccc45)cc3)ccnc2c1 [compound 364, 4-(5-chloropyridin-2-yl)-N-(4-(7-methoxyquinolin-4-ylthio)phenyl)phthalazin-1-amine]
0.016 µM | 0.011 µM | Clc1ccc(-c2nnc(Nc3ccc(Sc4ccnc5ccccc45)cc3)c3ccccc23)nc1 [compound 365, 4-(5-chloropyridin-2-yl)-N-(4-(quinolin-4-ylthio)phenyl)phthalazin-1-amine]
0.043 µM | 0.012 µM | Oc1cnc2c(Sc3ccc(Nc4nnc(-c5ccccc5)c5ccccc45)cc3)ccnc2c1 [compound 415]
0.098 µM | 0.003 µM | Cc1ccc(-c2nnc(Nc3ccc(Oc4ccnc5cccnc45)cc3)c3ccccc23)cc1N [compound 416]
0.309 µM | 0.026 µM | COc1ccc2nccc(Sc3ccc(Nc4nnc(-c5cccc(C)n5)c5ccccc45)cc3)c2n1 [compound 419]
0.072 µM | 0.015 µM | COc1cnc2c(Sc3ccc(Nc4nnc(-c5cccc(C)n5)c5ccccc45)cc3)ccnc2c1 [compound 420]
0.142 µM | 0.008 µM | Cc1cccc(-c2nnc(Nc3ccc(Sc4ccnc5cccnc45)cc3)c3ccccc23)n1 [compound 421]
0.171 µM | 0.003 µM | c1ccc(-c2nnc(Nc3ccc(Sc4ccnc5ccncc45)cc3)c3ccccc23)cc1 [compound 425]
